From patent US20200216906A1, “METHODS AND COMPOSITIONS RELATING TO THE DIAGNOSIS AND TREATMENT OF CANCER” (PRESIDENT AND FELLOWS OF HARVARD COLLEGE, priority 2015, published 2020)
“Also recorded” adds a separate entry of the source. Read-outs that look alike come from different tables or passages of the source.

What was measured:
[1] = system: Panc02.13 cells expressing the YAPS6A mutant; assay: 3D spheroid growth assay, Panc02.13 cells expressing YAPS6A; assay type: cell-based, human; conditions: YAP activity increased
[2] = system: Panc02.13 cells; assay: 3D spheroid growth assay, Panc02.13 (GFP/parental) cells; conditions: Hippo-YAP pathway active
Protocol: Cancer cell lines were seeded at a 5×10^3 cells per well in a 96-well ultra-low adherence plates (Costar) and briefly spun down at 1000 rpm for 5 minutes. After 2 days, cells were treated with small molecule inhibitors at varying concentrations. Growth of spheroids was monitored using live cell imaging every 2-3 hours for 4-7 days in the Incucyte FLR™ system (Essen) or as end point assay using CellTiter-Glo™ luminescent cell viability assay (Promega).
A dose response curve for each inhibitor is calculated based on control (no inhibitor/DMSO) treated wells.
Cancer cell lines were seeded at a 5×10^3 cells per well in a 96-well ultra-low adherence plates (Costar) and briefly spun down at 1000 rpm for 5 minutes. After 2 days, cells were treated with small molecule inhibitors at varying concentrations. Growth of spheroids was monitored using live cell imaging every 2-3 hours for 4-7 days in the Incucyte ZOOM™ system (Essen) or as end point assay using CellTiter-Glo™ luminescent cell viability assay (Promega).

[3] = target: T1, ABCG2 (Homo sapiens, UniProt Q9UNQ0); conditions: Cusatis and Sparreboom, 2008; cited from earlier work
T1 sequence (Q9UNQ0 1-655): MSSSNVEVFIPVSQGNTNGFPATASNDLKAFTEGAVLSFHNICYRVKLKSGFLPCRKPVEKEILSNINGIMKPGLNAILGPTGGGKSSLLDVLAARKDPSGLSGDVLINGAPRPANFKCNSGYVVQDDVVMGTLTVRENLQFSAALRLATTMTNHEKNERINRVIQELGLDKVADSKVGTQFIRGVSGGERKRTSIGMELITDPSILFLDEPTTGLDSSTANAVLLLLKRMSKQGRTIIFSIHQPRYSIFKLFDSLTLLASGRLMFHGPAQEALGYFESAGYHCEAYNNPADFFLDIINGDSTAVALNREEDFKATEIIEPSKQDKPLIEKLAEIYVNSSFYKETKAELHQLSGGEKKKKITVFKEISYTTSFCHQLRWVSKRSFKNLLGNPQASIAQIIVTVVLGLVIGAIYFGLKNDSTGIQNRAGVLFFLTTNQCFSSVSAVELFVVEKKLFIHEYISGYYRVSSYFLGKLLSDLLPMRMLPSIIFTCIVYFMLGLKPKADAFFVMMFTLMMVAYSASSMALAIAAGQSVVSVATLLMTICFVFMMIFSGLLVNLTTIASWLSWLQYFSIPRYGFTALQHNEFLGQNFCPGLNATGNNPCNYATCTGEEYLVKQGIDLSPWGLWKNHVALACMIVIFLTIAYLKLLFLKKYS

[4] = system: Panc02.13 cells expressing vector only (02.13-WT); assay: Kinetic cell growth assay, Panc02.13 cells expressing vector only; assay type: cell-based, human
Protocol: (§1) Panc02.13 cells were used to express YAPS6A (or vector controls) under sparse and dense cultures. Expression was confirmed by confocal microscopy (data not shown). Suppression of the Hippo pathway by expression of non-phospho, active form of YAP (YAPS6A) sensitized pancreatic cancer cells to gemcitabine and 5-FU (FIGS. 6 and 7). Apoptosis was measured by immunobloting with cleaved caspases 3/7 or PARP. Blots were also stained with anti-β-actin for loading control. The effect of Hippo pathway suppression on gemcitabine and 5-FU senstitization was maintained in 3D spheroid culture (FIG. 8). The effects of eleven cytotoxic drugs on the growth of Panc02.13 cells expressing vector only or YAPS6A construct grown under low or high densities were determined (Table 1).
(§2) The effect of gemcitabine on pancreatic cancer cell growth was studied using a kinetic cell growth assay. Pancreatic cancer cells were plated on 96-well plates (Essen ImageLock, Essen Instruments, MI, US) at varying densities (2-4×10^3 for low density or 15-20×10^3 for high density experiments). Small molecule inhibitors at different doses were added 24 hours after plating and cell confluence was monitored with Incucyte Live-Cell Imaging System and software (Essen Instruments). Confluence was observed every hour for 48-144h or until the control (DMSO only) samples reached 100% confluence.
as §2, with “Kinetic Cell growth assay. The” for “The”, “(2-4X103” for “(2-4×10^3”, “15-20X103” for “15-20×10^3”, “Incucyte™” for “Incucyte”

[5] = system: Panc02.13 cells expressing YAPS6A construct; assay: Kinetic cell growth assay, Panc02.13 cells expressing YAPS6A; assay type: cell-based, human; conditions: YAPS6A construct
Protocol: as §1, §2
Cell lines (Panc02.13, Panc10.05 or Miapaca2) were transfected with YAPS6A constructs (Addgene) using Lipofectamine™ (Invitrogen, Carlsbad, Calif.) following the manufacturer's instructions and 48 hour post-transfection selected in 5-10 μg/ml Blasticidin (InvivoGen, San Diego, Calif.). The clones screened for YAPS6A expression by Western blot. Stable cell lines were maintained in complete medium and 5 μg/ml Blasticidin.
as §2, with “Kinetic Cell growth assay. The” for “The”, “(2-4X103” for “(2-4×10^3”, “15-20X103” for “15-20×10^3”, “Incucyte™” for “Incucyte”

[6] = system: pancreatic cancer cell lines; assay: Kinetic cell growth assay, panel of pancreatic cancer cell lines; assay type: cell-based, human
Protocol: as §2
FIG. 20A illustrates the kinetic cell growth assay to determine the effect of gemcitabine in a panel of pancreatic cancer cell lines. Cells are plated at low crowding conditions (10-25% confluence) and 24 hours later exposed to gemcitabine in a dose-dependent manner. They are imaged every 1-3 hours until control (vehicle) treated cells reach 100% confluence. This assay is not confounded by the fact that the time required for each cell line to reach 100% confluence may be very different (as the cell lines have different doubling times). A dose response effect of gemcitabine on cell growth for 16 pancreatic cancer cell lines is shown in FIGS. 20B, 3, 31A-31C and 28, where the range of previous studies is also shown. […] Similar responses to gemcitabine were found in liver cancer cell lines (Huh7 and FOCUS) and untransformed (HEK293) cell lines (FIGS. 3, 31A-31C).
as §2, with “Kinetic Cell growth assay. The” for “The”, “(2-4X103” for “(2-4×10^3”, “15-20X103” for “15-20×10^3”, “Incucyte™” for “Incucyte”

[7] = system: patient-derived xenograft (PDX) models; assay: Patient-derived xenograft (PDX) models, tumor growth inhibition; assay type: in vivo, mouse; conditions: PDX models
Text: An alternative to an endogenous mouse models for capturing effects of the tumor environment are patient-derived xenograft (PDX) models. […] At the cellular level, PDX models also preserve the intra-tumoral heterogeneity, as well as the molecular characteristics of the original cancer, including copy number variants, single-nucleotide polymorphisms, and gene expression profiles (Choi et al., 2014; DeRose et al., 2011). […] When patient-derived xenograft PDX models were used to assess whether YAP activation sensitizes solid tumors to gemcitabine significant effects were found. The studies were performed in the following manner: Tumor fragments (around 64 mm^3) were implanted into the flanks of recipient mice and tumor dimensions recorded with digital calipers. Once tumor implants reached a volume of approximately 200 mm3, dosing with gemcitabine (or vehicle control) began. At the completion of the study completion, the percent tumor growth inhibition (% TGI) was calculated for gemcitabine (G) and the vehicle control (C) using initial (i) and final (f) tumor measurements by the formula: % TGI=[1−(Gf−Gi)/(Cf−Ci)]x100.
Patient-derived xenograft (PDX) models. PDX models were established by Champions Oncology (Baltimore, Md.) as described previously (Khor et al., 2015). Drug response to 20 PDX models was obtained from Champions TumorGraft® Database (available on the world wide web at database.championsoncology.com/).
Immunohistochemistry. Human primary tumor tissue slides were obtained from Champions Oncology (Baltimore, Md.). Immunohistochemistry using anti YAP1 antibody (Abcam Cat # ab52771) was performed as previously described (Shi et al., 1999). For negative controls, primary antibody was omitted. The intensity of YAP staining was assessed by an independent pathologist using a four-grade scale: “0” is negative. “0.5” is borderline staining with no significance. “1” is weak staining. “1.5” is weak staining with foci of moderate staining. “2” is moderate staining. […] YAP scoring index was calculated based on staining intensity * % of positive target cells.

[8] = Homo sapiens, high density, read-out: High density (EC50, nM) 02.13-WT
[9] = Homo sapiens, low density, read-out: Low density (EC50, nM) 02.13-WT
[10] = Homo sapiens, high density, read-out: High density (EC50, nM) 02.13-YAPS6A
[11] = Homo sapiens, low density, read-out: Low density (EC50, nM) 02.13-YAPS6A

COc1cccc2c1C(=O)c1c(O)c3c(c(O)c1C2=O)C[C@@](O)(C(=O)CO)C[C@@H]3O[C@H]1C[C@H](N)[C@@H](O)[C@H](C)O1 [epirubicin]
Efficacy in inhibiting cell growth when the Hippo pathway was inhibited [1]: increased efficacy in inhibiting cell growth | Efficacy in inhibiting cell growth when the Hippo pathway was not inhibited [2]: efficacious in inhibiting cell growth | Substrate of ABCG2 [3]: substrates of ABCG2

COc1cc([C@@H]2c3cc4c(cc3[C@@H](O[C@@H]3O[C@@H]5CO[C@@H](C)O[C@H]5[C@H](O)[C@H]3O)[C@H]3COC(=O)[C@H]23)OCO4)cc(OC)c1O [Etoposide]
Efficacy in inhibiting cell growth when the Hippo pathway was inhibited [1]: particularly significant inhibitory activity | Efficacy in inhibiting cell growth when the Hippo pathway was inhibited ([1]; listed as etopiside): increased efficacy in inhibiting cell growth | EC50 [4, 8]: 2600 nM | EC50 [4, 9]: 386 nM | Substrate of ABCG2 [3]: substrates of ABCG2 | EC50 [5, 10]: 942 nM | EC50 [5, 11]: 383 nM

Nc1nc(Cl)nc2c1ncn2[C@H]1C[C@H](O)[C@@H](CO)O1 [cladribine]
Efficacy in inhibiting cell growth when the Hippo pathway was inhibited [1]: increased efficacy in inhibiting cell growth; also recorded: particularly significant inhibitory activity | Substrate of ABCG2 [3]: substrates of ABCG2

COc1cccc2c1C(=O)c1c(O)c3c(c(O)c1C2=O)C[C@@](O)(C(=O)CO)C[C@@H]3O[C@H]1C[C@H](N)[C@H](O)[C@H](C)O1 [Doxorubicin]
Efficacy in inhibiting cell growth when the Hippo pathway was inhibited [1]: increased efficacy in inhibiting cell growth | Efficacy in inhibiting cell growth when the Hippo pathway was not inhibited [2]: efficacious in inhibiting cell growth | EC50 [4, 8]: 386 nM | EC50 [4, 9]: 35 nM | Dependence of cellular response on cell crowding ([6]; seven PDAC cell lines, threshold >100 fold difference in EC50): dependent on cell crowding | Density dependence of efficacy ([6]; seven pancreatic cancer cell lines, sparse and dense conditions): density-dependent | EC50 [5, 10]: 133 nM | EC50 [5, 11]: 68 nM

COc1cc([C@@H]2c3cc4c(cc3[C@@H](O[C@@H]3O[C@@H]5CO[C@@H](c6cccs6)O[C@H]5[C@H](O)[C@H]3O)[C@H]3COC(=O)[C@H]23)OCO4)cc(OC)c1O [teniposide]
Efficacy in inhibiting cell growth when the Hippo pathway was inhibited [1]: increased efficacy in inhibiting cell growth; also recorded: particularly significant inhibitory activity | Substrate of ABCG2 [3]: substrates of ABCG2

CC[C@@]1(O)C(=O)OCc2c1cc1n(c2=O)Cc2cc3c(CN(C)C)c(O)ccc3nc2-1 [topotecan]
Efficacy in inhibiting cell growth when the Hippo pathway was inhibited [1]: increased efficacy in inhibiting cell growth | Substrate of ABCG2 [3]: substrates of ABCG2

N.N.[Cl][Pt][Cl] [Cisplatin]
EC50 ([4]; high density, read-out: High density (EC50, nM) 02.13-WT): > 10000 nM | EC50 ([4]; low density, read-out: Low density (EC50, nM) 02.13-WT): > 10000 nM | % TGI dependence on YAP activity [7]: not affected by YAP activity | EC50 ([5]; high density, read-out: High density (EC50, nM) 02.13-YAPS6A): > 10000 nM | EC50 ([5]; low density, read-out: Low density (EC50, nM) 02.13-YAPS6A): > 10000 nM

CN(Cc1cnc2nc(N)nc(N)c2n1)c1ccc(C(=O)N[C@@H](CCC(=O)O)C(=O)O)cc1 [methotrexate]
Efficacy in inhibiting cell growth when the Hippo pathway was inhibited [1]: increased efficacy in inhibiting cell growth; also recorded: particularly significant inhibitory activity | Substrate of ABCG2 [3]: substrates of ABCG2

O=C1c2c(O)ccc(O)c2C(=O)c2c(NCCNCCO)ccc(NCCNCCO)c21 [mitoxantrone]
Efficacy in inhibiting cell growth when the Hippo pathway was inhibited [1]: increased efficacy in inhibiting cell growth; also recorded: particularly significant inhibitory activity | Substrate of ABCG2 [3]: substrates of ABCG2

N.N.O=C([O-])C1(C(=O)[O-])CCC1.[Pt+2] [carboplatin]
% TGI dependence on YAP activity [7]: not affected by YAP activity
